Among the data in PubChem BioAssay (NCI) are TGI values, retold here.

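Interpolation was linear, between the two tested concentrations surrounding the appropriate level; five concentrations were tested over 48 hours in 96-well plates. At the TGI there is no net growth.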 Some results are limits rather than exact numbers.

Some test systems named below: 786-0 renal; HCC-2998 colon; HL-60(TB) leukemia; IGROV1 ovarian; MDA-MB-231 breast; NCI/ADR-RES ovarian; OVCAR-8 ovarian; SNB-19 CNS; SNB-75 CNS; SR leukemia; UACC-257 melanoma.
What all share (assay): growth of human tumour cells (NCI), 48 h

Consider `CC1(C)N=[N+]([O-])C1(C)C`, for which the TGI in the test with 786-0 renal, in the test on HCC-2998 colon, in the test on HL-60(TB) leukemia, with IGROV1 ovarian, in the test with MDA-MB-231 breast and with NCI/ADR-RES ovarian was over 100 µM throughout. In addition, the TGI in the test on OVCAR-8 ovarian, in the test on SNB-19 CNS, with SNB-75 CNS, in the test on SR leukemia and with UACC-257 melanoma was over 100 µM each time.

Take `COC(=O)c1ccccc1CC1Cc2ccc3c(c2C1=O)CCCC3` (stereo not given): the TGI is over 100 µM in the test with 786-0 renal; over 100 µM in the test with HCC-2998 colon; over 100 µM in the test on HL-60(TB) leukemia; over 100 µM in the test on IGROV1 ovarian; over 100 µM in the test on MDA-MB-231 breast; over 84.9 µM in the test on NCI/ADR-RES ovarian. For the same compound, the TGI with OVCAR-8 ovarian was over 100 µM; with SNB-19 CNS it was over 100 µM; in the test on SNB-75 CNS, over 100 µM; in the test with SR leukemia, 24.5 µM; in the test on UACC-257 melanoma, over 100 µM.

For `c1ccc(N=c2sc3ccccc3nc2Nc2ccccc2)cc1`, the TGI in the test with 786-0 renal, with HCC-2998 colon, in the test on HL-60(TB) leukemia, with IGROV1 ovarian, in the test with MDA-MB-231 breast and in the test on NCI/ADR-RES ovarian was over 100 µM each time. Besides, the TGI in the test on OVCAR-8 ovarian, in the test on SNB-19 CNS, in the test on SNB-75 CNS, with SR leukemia and in the test with UACC-257 melanoma was over 100 µM each time.

In the case of `Cc1ccc(C(=O)O)cc1S(=O)(=O)Nn1cnc2ccc(S(=O)(=O)Nc3ccccc3C(=O)O)cc2c1=O`, the TGI with 786-0 renal, in the test on HCC-2998 colon, with HL-60(TB) leukemia, in the test on IGROV1 ovarian, in the test on MDA-MB-231 breast and with NCI/ADR-RES ovarian was over 100 µM throughout. For the same compound, the TGI with OVCAR-8 ovarian, with SNB-19 CNS, with SNB-75 CNS, in the test on SR leukemia and in the test with UACC-257 melanoma was over 100 µM in each case.

With `NC(=O)NCCCC(NC(=O)OCCCCn1ccc(=O)[nH]c1=O)C(=O)O` (stereo not given), the TGI with 786-0 renal, with HCC-2998 colon, in the test with HL-60(TB) leukemia, with IGROV1 ovarian, in the test on MDA-MB-231 breast and in the test with NCI/ADR-RES ovarian was over 100 µM each time. Besides, the TGI in the test with OVCAR-8 ovarian, in the test on SNB-19 CNS, in the test with SNB-75 CNS, with SR leukemia and with UACC-257 melanoma was over 100 µM each time.

On to `N#Cc1c(N2CCCC2)ncn(-c2ccccc2)c1=O`, for which the TGI in the test with 786-0 renal, in the test on HCC-2998 colon, in the test with HL-60(TB) leukemia, in the test on IGROV1 ovarian, in the test on MDA-MB-231 breast and in the test on NCI/ADR-RES ovarian was over 100 µM each time. The TGI with OVCAR-8 ovarian, with SNB-19 CNS, in the test on SNB-75 CNS, in the test on SR leukemia and in the test with UACC-257 melanoma was over 100 µM in each case.

In the case of `COC(=O)c1c(C)cccc1C1CN=NC12Cc1ccc(C)cc1C2=O` (stereo not given), the TGI with 786-0 renal was over 100 µM; with HCC-2998 colon, over 100 µM; with HL-60(TB) leukemia it was 47.1 µM; with IGROV1 ovarian, over 100 µM; in the test with MDA-MB-231 breast, over 100 µM; in the test with NCI/ADR-RES ovarian, over 100 µM. Moreover, the TGI in the test with OVCAR-8 ovarian, in the test with SNB-19 CNS, in the test with SNB-75 CNS, with SR leukemia and in the test with UACC-257 melanoma was over 100 µM in each case.

On to `O=c1c2cc([N+](=O)[O-])cnc2sn1-c1ccc([N+](=O)[O-])cc1`, for which the TGI in the test on 786-0 renal is over 100 µM; with HCC-2998 colon, over 100 µM; in the test on HL-60(TB) leukemia, 64.2 µM; in the test with IGROV1 ovarian it was over 100 µM; with MDA-MB-231 breast, 53.6 µM; in the test with NCI/ADR-RES ovarian, 99.3 µM. Moreover, the TGI in the test on OVCAR-8 ovarian was over 100 µM; with SNB-19 CNS, over 100 µM; in the test on SNB-75 CNS, over 100 µM; with SR leukemia it was 54.6 µM; with UACC-257 melanoma it was over 100 µM.

As for `Nn1c(-c2ccccc2)nn(C(=O)c2ccccc2)c1=O`, the TGI in the test on 786-0 renal, with HCC-2998 colon, in the test with HL-60(TB) leukemia, in the test with IGROV1 ovarian, with MDA-MB-231 breast and with NCI/ADR-RES ovarian was over 100 µM each time. Besides, the TGI with OVCAR-8 ovarian, in the test on SNB-19 CNS, in the test with SNB-75 CNS, with SR leukemia and in the test on UACC-257 melanoma was over 100 µM each time.

On to `Cc1ccc(-c2n[nH]c(=O)n2N2C(=O)c3ccccc3C2=O)cc1`, for which the TGI in the test on 786-0 renal, in the test on HCC-2998 colon, in the test on HL-60(TB) leukemia, with IGROV1 ovarian, in the test on MDA-MB-231 breast and in the test with NCI/ADR-RES ovarian was over 100 µM in each case. Also, the TGI in the test on OVCAR-8 ovarian, in the test with SNB-19 CNS, in the test with SNB-75 CNS, in the test with SR leukemia and with UACC-257 melanoma was over 100 µM each time.
